What was measured:
IptFG(ch) mutant = test: Rescue of growth of coupling helix mutant (plating and disk assays); type: cell-based, E. coli
Protocol: FIG. 8B is a series of pictures of bacterial overnight cultures grown in minimal medium. The cultures were serially diluted ten-fold and spotted onto LB agar plates with and without compounds.
FIG. 15 is a picture of bacterial lawns grown on plates in the presence of disks containing antibiotics. […] Strains were grown overnight in minimal media and then plated on LB plates. Each disk contained 5 μg compound.
The coupling helices in LptFG each contain a strictly-conserved glutamate, and changing both glutamates to alanine (IptFG(ch)) causes a lethal loss of function (FIG. 8B, LB panel). […] Because novobiocin also contacts R91 (FIG. 7C), we speculated that it might rescue growth of IptFG(ch) by masking the charge. […] We conclude that novobiocin suppresses Lpt defects in vivo by interacting with LptB at R91; therefore, novobiocin interacts with LptB in cells in a similar manner to that observed in the crystal structure.
Disk diffusion assays were performed as described in Sherman et al., Proc. Natl. Acad. Sci. USA 2014, 111, 4982-4987. Premade Sensi-Disc (BD-Beckton, Dickinson and Company) were used for bacitracin 10IU, erythromycin 15 μg, novobiocin 30 μg, and rifampin 5 μg.
Efficiency of plating assays were performed on indicated media using the method described in Butler et al., J. Bacteriol. 2013, 195, 4639-4649.

[1] = tested on: A. baumannii (ATCC: 19606) mutant that is novobiocin and polymyxin-resistant; test: Checkerboard microdilution assay, polymyxin-resistant strain; type: cell-based; conditions: 37° C. for 24 h
Protocol: The effect of novobiocin/polymyxin combination was further assessed in polymyxin-resistant strains using checkerboard microdilution assays. In these assays, polymyxin-resistant strains (E. coli (clinical isolate from Brigham and Women's Hospital); A. baumannii (ATCC: 19606) mutant that is novobiocin and polymyxin-resistant; and K. pneumoniae (clinical isolate from Brigham and Women's Hospital)) were grown at 37° C. for 24 h.

[2] = target: T1, LptB2LptFG(ch)C complexes (Escherichia coli, UniProt P0A9V1); test: LPS-release assay, right-side-out vesicles to LptA*; type: biochemical, E. coli; conditions: 30° C. (FIG. 9C)
T1 construct: made in house; host or cells: right-side-out membrane vesicles from E. coli BL-21(λDE3) overexpressing the complex
T1 sequence (P0AF98 whole entry E84A): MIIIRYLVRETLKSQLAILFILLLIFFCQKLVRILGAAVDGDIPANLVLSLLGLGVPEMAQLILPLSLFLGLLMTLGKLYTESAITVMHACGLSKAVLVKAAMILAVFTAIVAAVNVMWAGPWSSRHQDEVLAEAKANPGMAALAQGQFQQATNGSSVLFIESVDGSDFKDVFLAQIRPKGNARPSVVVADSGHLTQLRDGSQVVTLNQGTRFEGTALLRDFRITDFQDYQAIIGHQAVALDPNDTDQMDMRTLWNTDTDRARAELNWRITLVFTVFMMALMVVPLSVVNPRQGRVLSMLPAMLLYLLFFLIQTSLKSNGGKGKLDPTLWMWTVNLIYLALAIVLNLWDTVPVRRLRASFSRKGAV
T1 sequence (P0ADC6 whole entry E88A, further chain): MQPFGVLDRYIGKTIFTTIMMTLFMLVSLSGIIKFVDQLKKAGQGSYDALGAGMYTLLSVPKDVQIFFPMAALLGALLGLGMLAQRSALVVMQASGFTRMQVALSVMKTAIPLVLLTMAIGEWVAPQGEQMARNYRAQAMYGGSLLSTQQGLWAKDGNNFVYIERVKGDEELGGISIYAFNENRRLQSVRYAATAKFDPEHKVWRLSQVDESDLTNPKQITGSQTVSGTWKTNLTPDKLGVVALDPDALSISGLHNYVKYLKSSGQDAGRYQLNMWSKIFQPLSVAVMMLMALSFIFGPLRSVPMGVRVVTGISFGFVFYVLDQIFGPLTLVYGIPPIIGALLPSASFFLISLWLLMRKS
T1 sequence (P0A9V1 2-241): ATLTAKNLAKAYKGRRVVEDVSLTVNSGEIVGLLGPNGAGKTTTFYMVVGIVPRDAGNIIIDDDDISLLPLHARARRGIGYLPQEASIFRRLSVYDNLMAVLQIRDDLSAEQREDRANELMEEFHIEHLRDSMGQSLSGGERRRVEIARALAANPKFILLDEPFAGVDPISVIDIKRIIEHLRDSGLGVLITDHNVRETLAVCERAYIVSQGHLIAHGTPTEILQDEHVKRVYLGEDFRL
T1 sequence (P0ADV9 whole entry, further chain): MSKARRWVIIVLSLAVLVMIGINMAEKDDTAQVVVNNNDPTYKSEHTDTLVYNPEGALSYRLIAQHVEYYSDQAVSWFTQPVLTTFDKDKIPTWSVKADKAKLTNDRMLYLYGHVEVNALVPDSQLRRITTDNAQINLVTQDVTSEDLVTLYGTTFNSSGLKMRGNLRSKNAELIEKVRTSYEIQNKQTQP
Protocol: (§1) FIG. 9A is a schematic drawing showing the assay to monitor LPS release from right-side-out vesicles to LptA* (LptA(I36pBPA)). Vesicles containing overexpressed wild-type or mutant LptB2FGC complexes were incubated with LptA* and ATP at 30° C. to initiate LPS extraction and transport from the vesicles to LptA*. Samples were taken at different time points and UV-irradiated to crosslink LPS to LptA*, and accumulation of LPS-LptA* adducts was detected using LPS immunoblots.
(§2) The assay detects via immunoblot LPS that becomes crosslinked to LptA* in the presence of UV light. […] By comparison, vesicles containing LptB2LptFG(ch)C complexes released less LPS over time (FIG. 9B, lanes 5-8). These experiments provide direct evidence that the amino acid changes in LptFG(ch), which were known to affect complex formation with LptB, impair LPS release. […] These compounds also increase LPS release from vesicles containing wild-type LptB2FGC complexes or LptB(R91 S)2FGC complexes (FIG. 17).
The in vitro LPS-transport experiments in FIGS. 9B, 9C, and 17 were set-up as described in (Okuda et al. Science 2012, 338, 1214-1217) with some modifications. […]
(§3) Immunoblotting was used to assess LptA*-LPS levels in each sample. […] LptA levels were assessed similarly, using rabbit anti-LptA antiserum followed by donkey anti-rabbit horseradish peroxidase conjugate (GE Amersham). […]

[3] = tested on: K. pneumoniae, A. baumannii, P. aeruginosa, E. coli; test: Log(CFU/mL) vs. time curves (FIG. 3); type: cell-based; conditions: Novobiocin 50-130 μg/mL, Polymyxin B 1.4-2.0 μg/mL
Protocol: FIGS. 3A-3D are a set of plots of colony forming units/ml (CFU/ml) over time when untreated, or treated with polymyxin B, novobiocin, or a combination of both. FIG. 3A is a growth curve of Klebsiella pneumoniae. FIG. 3B is a growth curve of Acinetobacter baumannii Novo^R. FIG. 3C is a plot of CFU/ml over time of Pseudomonas aeruginosa. FIG. 3D is a growth curve of Escherichia coli.
Log(CFU/mL) vs. time curves. Overnight cultures were diluted 1:100 and grown at 37° C., 220 rpm until OD600=0.1. This culture was transferred to four sterile 5 mL tubes and treated with polymyxin B, novobiocin, polymyxin B+novobiocin, or no drug and incubated at 37° C., 220 rpm. At each timepoint, 10 μL from each condition was log10 diluted to 10^−7 and subsequently plated on LB Miller agar containing no antibiotic. Time=0 h represents the CFU/mL count immediately after the initial treatment. Y-values of zero indicate fewer than 10,000 CFUs (limit of detection). Strains are identical to those used in FIG. 1. K. pneumoniae: [Novobiocin]=130 μg/mL, [Polymyxin B]=1.4 μg/mL; A. baumannii: [Novobiocin]=100 μg/mL, [Polymyxin B]=2.0 μg/mL; P. aeruginosa: [Novobiocin]=100 μg/mL, [Polymyxin B]=2.0 μg/mL; E. coli: [Novobiocin]=50 μg/mL, [Polymyxin B]=2.0 μg/mL.

[4] = target: T2, wild-type LptB2FGC complexes (Escherichia coli, UniProt P0A9V1); test: LPS-release assay, right-side-out vesicles to LptA*; type: biochemical, E. coli
T2 construct: made in house; host or cells: right-side-out membrane vesicles from E. coli BL-21(λDE3) overexpressing the complex
T2 sequence (P0AF98 whole entry): as the sequence (P0AF98 whole entry E84A) above, with A84E counted along it
T2 sequence (P0ADV9 whole entry, further chain): as the sequence (P0ADV9 whole entry, further chain) above
T2 sequence (P0ADC6 whole entry, further chain): as the sequence (P0ADC6 whole entry E88A, further chain) above, with A88E counted along it
T2 sequence (P0A9V1 2-241): as the sequence (P0A9V1 2-241) above
Protocol: as §1
FIG. 9D is a picture of an immunoblot showing that novobiocin and derivatives with impaired gyrase activities stimulate LPS transport in E. coli in vitro. […] Samples were UV irradiated at 365 nm for 5 minutes and then quenched with 2X SDS/5% β-mercaptoethanol. Samples were immunoblotted.
as §2
Samples were UV irradiated at 365 nm for 5 minutes and then quenched with 2X SDS/5% β-mercaptoethanol. Samples were immunoblotted.
The in vitro LPS-transport experiments in FIGS. 9B, 9C, and 17 were set-up as described in (Okuda et al. Science 2012, 338, 1214-1217) with some modifications. RSO-vesicles (50 μg total protein) were diluted into 100 μL reaction buffer (10% v/v glycerol, 20 mM Tris (pH 8.0), 150 mM NaCl, 5 mM sodium-ATP, 5 mM MgCl2), and incubated on ice with novobiocin, 1-adamantyl-novobiocin, or no compound for 15 minutes (50× compound stocks in water were used for each concentration). […]
as §3

## CO[C@@H]1[C@@H](OC(N)=O)[C@@H](O)[C@H](Oc2ccc3c(O)c(NC(=O)c4ccc(O)c(CC=C(C)C)c4)c(=O)oc3c2C)OC1(C)C [Novobiocin, novobiocin]
IptFG(ch) mutant; disks on LB plates, each disk 5 μg compound (FIG. 15)
  suppression of lethality of IptFG(ch): suppressed the lethality of IptFG(ch)
IptFG(ch) mutant; serial dilutions spotted onto LB agar plates with compound (FIG. 8B)
  rescue of growth of IptFG(ch): enables the IptFG(ch) mutant to grow
[1]
  synergy with polymyxin B: synergizes with polymyxin B
[2]
  LPS release from vesicles to LptA*: stimulate LPS release from the LptB2LptFG(ch)C vesicles in a concentration dependent manner
[3]
  killing by combination with polymyxin B, CFU/mL over time: synergy is bactericidal
[4]; overexpressed LptB2FGC vesicles, 30° C. for 1 hour (FIG. 9D, 9E)
  LPS transport in vitro: stimulate LPS transport in vitro
[4]; wild-type LptB2FGC or LptB(R91 S)2FGC vesicles (FIG. 17)
  LPS release from vesicles to LptA*: stimulates LPS release

— patent US11191773B2, “Methods of treatment for bacterial infections” (President and Fellows of Harvard College, priority 2017, dated 2021)
